Key:
Experiment in all cases: relative viability (nuclei count vs DMSO), 5 days (fraction); higher = more cells survive
Afatinib + Decitabine = compound: CN(C)C/C=C/C(=O)Nc1cc2c(Nc3ccc(F)c(Cl)c3)ncnc2cc1O[C@H]1CCOC1 [Afatinib] + Nc1ncn([C@H]2C[C@H](O)[C@@H](CO)O2)c(=O)n1 [Decitabine] (partner 2 µM)
In short: (§1)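 Lung cancer cell lines, seeded in 1536-well plates, were treated the following day by pin tool with a single drug or with five library-drug doses (not always all listed) in √10 steps on top of a fixed anchor-drug dose. Cells were fixed and nuclei stained in one step after 5 days, and nuclei were counted. Relative viability is the nuclei count for treated wells divided by that for vehicle wells, reported as medians of duplicate plates.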

Afatinib + Olaparib = compound: CN(C)C/C=C/C(=O)Nc1cc2c(Nc3ccc(F)c(Cl)c3)ncnc2cc1O[C@H]1CCOC1 [Afatinib] + O=C(c1cc(Cc2n[nH]c(=O)c3ccccc23)ccc1F)N1CCN(C(=O)C2CC2)CC1 [Olaparib] (partner 8 µM)
In short: as §1

Afatinib + Lapatinib = compound: CN(C)C/C=C/C(=O)Nc1cc2c(Nc3ccc(F)c(Cl)c3)ncnc2cc1O[C@H]1CCOC1 [Afatinib] + CS(=O)(=O)CCNCc1ccc(-c2ccc3ncnc(Nc4ccc(OCc5cccc(F)c5)c(Cl)c4)c3c2)o1 [Lapatinib] (partner 2 µM)
In short: as §1

Afatinib + AZD7762 = compound: CN(C)C/C=C/C(=O)Nc1cc2c(Nc3ccc(F)c(Cl)c3)ncnc2cc1O[C@H]1CCOC1 [Afatinib] + NC(=O)Nc1cc(-c2cccc(F)c2)sc1C(=O)N[C@H]1CCCNC1 [AZD7762] (partner 0.2 µM)
In short: as §1

Cell Line: NCI-H1944
- relative viability (Afatinib + Decitabine; first compound 0.005 µM): 0.423
- relative viability (Afatinib + Decitabine; first compound 0.01581 µM): 0.403
- relative viability (Afatinib + Decitabine; first compound 0.05 µM): 0.419
- relative viability (Afatinib + Decitabine; first compound 0.1581 µM): 0.343
- relative viability (Afatinib + Decitabine; first compound 0.5 µM): 0.344
- relative viability (Afatinib + Olaparib; first compound 0.005 µM): 0.384
- relative viability (Afatinib + Olaparib; first compound 0.01581 µM): 0.364
- relative viability (Afatinib + Olaparib; first compound 0.05 µM): 0.39
- relative viability (Afatinib + Olaparib; first compound 0.1581 µM): 0.326
- relative viability (Afatinib + Olaparib; first compound 0.5 µM): 0.332
- relative viability (Afatinib + Lapatinib; first compound 0.005 µM): 0.884
- relative viability (Afatinib + Lapatinib; first compound 0.01581 µM): 0.795
- relative viability (Afatinib + Lapatinib; first compound 0.05 µM): 0.691
- relative viability (Afatinib + Lapatinib; first compound 0.1581 µM): 0.799
- relative viability (Afatinib + Lapatinib; first compound 0.5 µM): 0.858
- relative viability (Afatinib + AZD7762; first compound 0.005 µM): 0.297
- relative viability (Afatinib + AZD7762; first compound 0.01581 µM): 0.496
- relative viability (Afatinib + AZD7762; first compound 0.05 µM): 0.413
- relative viability (Afatinib + AZD7762; first compound 0.1581 µM): 0.343
- relative viability (Afatinib + AZD7762; first compound 0.5 µM): 0.404

Cell Line: NCI-H1975
- relative viability (Afatinib + Decitabine; first compound 0.005 µM): 0.395
- relative viability (Afatinib + Decitabine; first compound 0.01581 µM): 0.283
- relative viability (Afatinib + Decitabine; first compound 0.05 µM): 0.391
- relative viability (Afatinib + Decitabine; first compound 0.1581 µM): 0.264
- relative viability (Afatinib + Decitabine; first compound 0.5 µM): 0.373
- relative viability (Afatinib + Olaparib; first compound 0.005 µM): 0.917
- relative viability (Afatinib + Olaparib; first compound 0.01581 µM): 0.771
- relative viability (Afatinib + Olaparib; first compound 0.05 µM): 0.778
- relative viability (Afatinib + Olaparib; first compound 0.1581 µM): 0.59
- relative viability (Afatinib + Olaparib; first compound 0.5 µM): 0.321
- relative viability (Afatinib + Lapatinib; first compound 0.005 µM): 0.895
- relative viability (Afatinib + Lapatinib; first compound 0.01581 µM): 0.685
- relative viability (Afatinib + Lapatinib; first compound 0.05 µM): 0.529
- relative viability (Afatinib + Lapatinib; first compound 0.1581 µM): 0.283
- relative viability (Afatinib + Lapatinib; first compound 0.5 µM): 0.239
- relative viability (Afatinib + AZD7762; first compound 0.005 µM): 0.867
- relative viability (Afatinib + AZD7762; first compound 0.01581 µM): 0.676
- relative viability (Afatinib + AZD7762; first compound 0.05 µM): 0.538
- relative viability (Afatinib + AZD7762; first compound 0.1581 µM): 0.43
- relative viability (Afatinib + AZD7762; first compound 0.5 µM): 0.312

Cell Line: NCI-H1993
- relative viability (Afatinib + Decitabine; first compound 0.005 µM): 0.552
- relative viability (Afatinib + Decitabine; first compound 0.01581 µM): 0.51
- relative viability (Afatinib + Decitabine; first compound 0.05 µM): 0.546
- relative viability (Afatinib + Decitabine; first compound 0.1581 µM): 0.509
- relative viability (Afatinib + Decitabine; first compound 0.5 µM): 0.578
- relative viability (Afatinib + Olaparib; first compound 0.005 µM): 0.828
- relative viability (Afatinib + Olaparib; first compound 0.01581 µM): 0.883
- relative viability (Afatinib + Olaparib; first compound 0.05 µM): 0.641
- relative viability (Afatinib + Olaparib; first compound 0.1581 µM): 0.557
- relative viability (Afatinib + Olaparib; first compound 0.5 µM): 0.704
- relative viability (Afatinib + Lapatinib; first compound 0.005 µM): 0.835
- relative viability (Afatinib + Lapatinib; first compound 0.01581 µM): 0.848
- relative viability (Afatinib + Lapatinib; first compound 0.05 µM): 1.11
- relative viability (Afatinib + Lapatinib; first compound 0.1581 µM): 1.01
- relative viability (Afatinib + Lapatinib; first compound 0.5 µM): 0.848
- relative viability (Afatinib + AZD7762; first compound 0.005 µM): 0.548
- relative viability (Afatinib + AZD7762; first compound 0.01581 µM): 0.521
- relative viability (Afatinib + AZD7762; first compound 0.05 µM): 0.544
- relative viability (Afatinib + AZD7762; first compound 0.1581 µM): 0.432
- relative viability (Afatinib + AZD7762; first compound 0.5 µM): 0.416

Cell Line: NCI-H2085
- relative viability (Afatinib + Decitabine; first compound 0.005 µM): 0.577
- relative viability (Afatinib + Decitabine; first compound 0.01581 µM): 0.522
- relative viability (Afatinib + Decitabine; first compound 0.05 µM): 0.519
- relative viability (Afatinib + Decitabine; first compound 0.1581 µM): 0.517
- relative viability (Afatinib + Decitabine; first compound 0.5 µM): 0.515
- relative viability (Afatinib + Olaparib; first compound 0.005 µM): 0.751
- relative viability (Afatinib + Olaparib; first compound 0.01581 µM): 0.691
- relative viability (Afatinib + Olaparib; first compound 0.05 µM): 0.659
- relative viability (Afatinib + Olaparib; first compound 0.1581 µM): 0.603
- relative viability (Afatinib + Olaparib; first compound 0.5 µM): 0.648
- relative viability (Afatinib + Lapatinib; first compound 0.005 µM): 0.857
- relative viability (Afatinib + Lapatinib; first compound 0.01581 µM): 0.762
- relative viability (Afatinib + Lapatinib; first compound 0.05 µM): 0.851
- relative viability (Afatinib + Lapatinib; first compound 0.1581 µM): 0.743
- relative viability (Afatinib + Lapatinib; first compound 0.5 µM): 0.76
- relative viability (Afatinib + AZD7762; first compound 0.005 µM): 0.753
- relative viability (Afatinib + AZD7762; first compound 0.01581 µM): 0.957
- relative viability (Afatinib + AZD7762; first compound 0.05 µM): 0.897
- relative viability (Afatinib + AZD7762; first compound 0.1581 µM): 0.636
- relative viability (Afatinib + AZD7762; first compound 0.5 µM): 0.753

Cell Line: NCI-H2087
- relative viability (Afatinib + Decitabine; first compound 0.005 µM): 0.336
- relative viability (Afatinib + Decitabine; first compound 0.01581 µM): 0.227
- relative viability (Afatinib + Decitabine; first compound 0.05 µM): 0.262
- relative viability (Afatinib + Decitabine; first compound 0.1581 µM): 0.209
- relative viability (Afatinib + Decitabine; first compound 0.5 µM): 0.25
- relative viability (Afatinib + Olaparib; first compound 0.005 µM): 0.511
- relative viability (Afatinib + Olaparib; first compound 0.01581 µM): 0.669
- relative viability (Afatinib + Olaparib; first compound 0.05 µM): 0.609
- relative viability (Afatinib + Olaparib; first compound 0.1581 µM): 0.525
- relative viability (Afatinib + Olaparib; first compound 0.5 µM): 0.593
- relative viability (Afatinib + Lapatinib; first compound 0.005 µM): 0.973
- relative viability (Afatinib + Lapatinib; first compound 0.01581 µM): 1.07
- relative viability (Afatinib + Lapatinib; first compound 0.05 µM): 1.09
- relative viability (Afatinib + Lapatinib; first compound 0.1581 µM): 0.946
- relative viability (Afatinib + Lapatinib; first compound 0.5 µM): 0.929
- relative viability (Afatinib + AZD7762; first compound 0.005 µM): 1.15
- relative viability (Afatinib + AZD7762; first compound 0.01581 µM): 1.45
- relative viability (Afatinib + AZD7762; first compound 0.05 µM): 1.27
- relative viability (Afatinib + AZD7762; first compound 0.1581 µM): 1.31
- relative viability (Afatinib + AZD7762; first compound 0.5 µM): 1.21

Cell Line: NCI-H2126
- relative viability (Afatinib + Decitabine; first compound 0.005 µM): 0.565
- relative viability (Afatinib + Decitabine; first compound 0.01581 µM): 0.519
- relative viability (Afatinib + Decitabine; first compound 0.05 µM): 0.595
- relative viability (Afatinib + Decitabine; first compound 0.1581 µM): 0.502
- relative viability (Afatinib + Decitabine; first compound 0.5 µM): 0.425
- relative viability (Afatinib + Olaparib; first compound 0.005 µM): 0.934
- relative viability (Afatinib + Olaparib; first compound 0.01581 µM): 0.881
- relative viability (Afatinib + Olaparib; first compound 0.05 µM): 0.85
- relative viability (Afatinib + Olaparib; first compound 0.1581 µM): 0.645
- relative viability (Afatinib + Olaparib; first compound 0.5 µM): 0.665
- relative viability (Afatinib + Lapatinib; first compound 0.005 µM): 0.779
- relative viability (Afatinib + Lapatinib; first compound 0.01581 µM): 0.688
- relative viability (Afatinib + Lapatinib; first compound 0.05 µM): 0.686
- relative viability (Afatinib + Lapatinib; first compound 0.1581 µM): 0.761
- relative viability (Afatinib + Lapatinib; first compound 0.5 µM): 0.799
- relative viability (Afatinib + AZD7762; first compound 0.005 µM): 1.02
- relative viability (Afatinib + AZD7762; first compound 0.01581 µM): 1.02
- relative viability (Afatinib + AZD7762; first compound 0.05 µM): 0.822
- relative viability (Afatinib + AZD7762; first compound 0.1581 µM): 0.776
- relative viability (Afatinib + AZD7762; first compound 0.5 µM): 0.793

Cell Line: NCI-H2170
- relative viability (Afatinib + Decitabine; first compound 0.005 µM): 0.459
- relative viability (Afatinib + Decitabine; first compound 0.01581 µM): 0.469
- relative viability (Afatinib + Decitabine; first compound 0.05 µM): 0.405
- relative viability (Afatinib + Decitabine; first compound 0.1581 µM): 0.176
- relative viability (Afatinib + Decitabine; first compound 0.5 µM): 0.2
- relative viability (Afatinib + Olaparib; first compound 0.005 µM): 0.624
- relative viability (Afatinib + Olaparib; first compound 0.01581 µM): 0.598
- relative viability (Afatinib + Olaparib; first compound 0.05 µM): 0.475
- relative viability (Afatinib + Olaparib; first compound 0.1581 µM): 0.169
- relative viability (Afatinib + Olaparib; first compound 0.5 µM): 0.155
- relative viability (Afatinib + Lapatinib; first compound 0.005 µM): 0.297
- relative viability (Afatinib + Lapatinib; first compound 0.01581 µM): 0.283
- relative viability (Afatinib + Lapatinib; first compound 0.05 µM): 0.268
- relative viability (Afatinib + Lapatinib; first compound 0.1581 µM): 0.269
- relative viability (Afatinib + Lapatinib; first compound 0.5 µM): 0.315
- relative viability (Afatinib + AZD7762; first compound 0.005 µM): 0.66
- relative viability (Afatinib + AZD7762; first compound 0.01581 µM): 0.55
- relative viability (Afatinib + AZD7762; first compound 0.05 µM): 0.245
- relative viability (Afatinib + AZD7762; first compound 0.1581 µM): 0.144
- relative viability (Afatinib + AZD7762; first compound 0.5 µM): 0.151

Cell Line: NCI-H2347
- relative viability (Afatinib + Decitabine; first compound 0.005 µM): 0.602
- relative viability (Afatinib + Decitabine; first compound 0.01581 µM): 0.654
- relative viability (Afatinib + Decitabine; first compound 0.05 µM): 0.626
- relative viability (Afatinib + Decitabine; first compound 0.1581 µM): 0.592
- relative viability (Afatinib + Decitabine; first compound 0.5 µM): 0.592
- relative viability (Afatinib + Olaparib; first compound 0.005 µM): 0.571
- relative viability (Afatinib + Olaparib; first compound 0.01581 µM): 0.699
- relative viability (Afatinib + Olaparib; first compound 0.05 µM): 0.595
- relative viability (Afatinib + Olaparib; first compound 0.1581 µM): 0.566
- relative viability (Afatinib + Olaparib; first compound 0.5 µM): 0.578
- relative viability (Afatinib + Lapatinib; first compound 0.005 µM): 0.934
- relative viability (Afatinib + Lapatinib; first compound 0.01581 µM): 0.985
- relative viability (Afatinib + Lapatinib; first compound 0.05 µM): 0.832
- relative viability (Afatinib + Lapatinib; first compound 0.1581 µM): 0.987
- relative viability (Afatinib + Lapatinib; first compound 0.5 µM): 0.996
- relative viability (Afatinib + AZD7762; first compound 0.005 µM): 0.568
- relative viability (Afatinib + AZD7762; first compound 0.01581 µM): 0.738
- relative viability (Afatinib + AZD7762; first compound 0.05 µM): 0.589
- relative viability (Afatinib + AZD7762; first compound 0.1581 µM): 0.725
- relative viability (Afatinib + AZD7762; first compound 0.5 µM): 0.541
